Results published in patent US20160045513A1, “ISOXAZOLE COMPOUND FOR THE TREATMENT OF CANCER” (Novartis AG, priority 2007, published 2016).

Experiments:
CA20948 xenograft = assay: antitumor effect in the rat pancreatic cancer model CA20948; assay type: in vivo; conditions: for T/C (%) / ΔTumor volume (mm^3): qw; for ΔTumor volume (mm^3): mean ±SEM, *P < 0.05
Method: The transplantable rat pancreatic tumor CA20948 is serially passaged as cell homogenates in male syngeneic Lewis rats. The injection site is subcutaneously on the right flank. […] Tumor growth is monitored at regular intervals. The xenograft tumor sizes is measured manually with calipers and the tumor volume is estimated using the formula: (W×L^2×π/6), where width (W) and height (H) are the two largest diameters. Results are presented as mean ±SEM. Tumor data were analyzed by ANOVA with post hoc Dunnet's test for comparison of treatment versus control group. As a measure of efficacy the % T/C value is calculated at the end of the experiment according to: (Δtumor volumetreated/Δtumor volumecontrol)*100 where Δtumor volumes represent the mean tumor volume on the evaluation day minus the mean tumor volume at the start of the experiment. The antitumor effect of AUY922 is evaluated in the CA20948 xenograft model. Each group consisted of six tumor bearing animals. At the end of the study, the tumor sizes in the treatment groups are compared to those of the vehicle treated groups and the effect is expressed as % T/C.

MALME-3M = assay: cell proliferation, tumor derived cell lines; assay type: cell-based; conditions: Homo sapiens, Melanoma, 72 or 96 hours exposure
Method: (§1) Thirty-seven cancer derived cell lines are used (BT474, MDA-MB-361, MDA-MB-453, SKBr3, T47D, MCF7, MDA-MB-231, MDA-MB-468, SK-MEL-5, A375, MALME-3M, SK-MEL-28, WM266.4, RPMI8226, U266, BE, Colo205, HCT116, HT29, MAWI, RKO, U87MG, HN5, RPMI-8226, A549, MV522, NCI-H1299, NCI-H460, 41M, A2780, CHI, NCI-N87, SKOV3, PC3, MO7e, GIST882 and Baf3) to test the effect of 5-(2,4-Dihydroxy-5-isopropyl-phenyl)-4-(4-morpholin-4-ylmethyl-phenyl)-isoxazole-3-carboxylic acid ethylamide. Cell lines are commercially available from American Type Culture Collection (ATCC). These cell lines cover the following 12 cancer or tumor types: breast, melanoma, multiple myeloma (MM), colon, glioblastoma, head & neck, leukemia, lung, ovarian, prostate, stomach and gastrointestinal stromal tumour (GIST). After division and medium change, cells from stock culture are seeded on cell plates and cultured for about 18 hours to allow cell growth and attachment before starting the assay. On the first day of the assay, 5-(2,4-Dihydroxy-5-isopropyl-phenyl)-4-(4-morpholin-4-ylmethyl-phenyl)-isoxazole-3-carboxylic acid ethylamide is added to the medium at various concentrations up to […]. Cells are cultured up to 72 or 96 hours and cell proliferation is determined using commercially available cell proliferation kits.
(§2) The cells were continually exposed to 5-(2,4-Dihydroxy-5-isopropyl-phenyl)-4-(4-morpholin-4-ylmethyl-phenyl)-isoxazole-3-carboxylic acid ethylamide for either 72 or 96 hours and cell growth was determined by commercially available kits based on either SRB, Alamar blue, methylene blue or WST-1 methods.

SK-MEL-28 = assay: cell proliferation, tumor derived cell lines; assay type: cell-based; conditions: Homo sapiens, Melanoma, 72 or 96 hours exposure
Method: as §1, §2

HT29 = assay: cell proliferation, tumor derived cell lines; assay type: cell-based; conditions: Homo sapiens, HT-29, Colon, 72 or 96 hours exposure
Method: as §1, §2

CH1 = assay: cell proliferation, tumor derived cell lines; assay type: cell-based; conditions: Homo sapiens, Ovarian, 72 or 96 hours exposure
Method: as §1, §2

U87MG = assay: cell proliferation, tumor derived cell lines; assay type: cell-based; conditions: Homo sapiens, U-87 MG, Glioblastoma, 72 or 96 hours exposure
Method: as §1, §2

WM266.4 = assay: cell proliferation, tumor derived cell lines; assay type: cell-based; conditions: Homo sapiens, WM 266-4, Melanoma, 72 or 96 hours exposure
Method: as §1, §2

SKOV3 = assay: cell proliferation, tumor derived cell lines; assay type: cell-based; conditions: Homo sapiens, SK-OV-3, Ovarian, 72 or 96 hours exposure
Method: as §1, §2

NCI-N87 = assay: cell proliferation, tumor derived cell lines; assay type: cell-based; conditions: Homo sapiens, Stomach, 72 or 96 hours exposure
Method: as §1, §2

MO7e = assay: cell proliferation, tumor derived cell lines; assay type: cell-based; conditions: 72 or 96 hours exposure
Method: as §1, §2

MDA-MB-361 = assay: cell proliferation, tumor derived cell lines; assay type: cell-based; conditions: Homo sapiens, Breast, 72 or 96 hours exposure
Method: as §1, §2

PC3 = assay: cell proliferation, tumor derived cell lines; assay type: cell-based; conditions: Homo sapiens, PC-3, Prostate, 72 or 96 hours exposure
Method: as §1, §2

MDA-MB-453 = assay: cell proliferation, tumor derived cell lines; assay type: cell-based; conditions: Homo sapiens, Breast, 72 or 96 hours exposure
Method: as §1, §2

HN5 = assay: cell proliferation, tumor derived cell lines; assay type: cell-based; conditions: Homo sapiens, Head & Neck, 72 or 96 hours exposure
Method: as §1, §2

NCI-H460 = assay: cell proliferation, tumor derived cell lines; assay type: cell-based; conditions: Homo sapiens, Lung, 72 or 96 hours exposure
Method: as §1, §2

BT474 = assay: cell proliferation, tumor derived cell lines; assay type: cell-based; conditions: Homo sapiens, BT-474, Breast, 72 or 96 hours exposure
Method: as §1, §2

MV522 = assay: cell proliferation, tumor derived cell lines; assay type: cell-based; conditions: Lung, 72 or 96 hours exposure
Method: as §1, §2

Colo205 = assay: cell proliferation, tumor derived cell lines; assay type: cell-based; conditions: Homo sapiens, COLO 205, Colon, 72 or 96 hours exposure
Method: as §1, §2

Compound: CCNC(=O)c1noc(-c2cc(C(C)C)c(O)cc2O)c1-c1ccc(CN2CCOCC2)cc1 [AUY922, 5-(2,4-Dihydroxy-5-isopropyl-phenyl)-4-(4-morpholin-4-ylmethyl-phenyl)-isoxazole-3-carboxylic acid ethylamide]
- T/C (%) (CA20948 xenograft; 50 mg/kg, i.v.): 30%
- ΔTumor volume (mm^3) (CA20948 xenograft; 50 mg/kg, i.v.): 7090 ± 2553* mm^3
- T/C (%) (CA20948 xenograft; 75 mg/kg, i.v): 21%
- ΔTumor volume (mm^3) (CA20948 xenograft; 75 mg/kg, i.v): 4796 ± 1354* mm^3
- reduction of tumor sizes versus vehicle (CA20948 xenograft; once per week at 50 and 75 mg/kg): Statistically significant reduction of tumor sizes
- IC50 (MALME-3M): 7.7 nM
- IC50 (SK-MEL-28): 8 nM
- IC50 (HT29): 30 nM
- IC50 (CH1): 2.8 nM
- IC50 (U87MG): 6 nM
- IC50 (WM266.4): 6.2 nM
- IC50 (SKOV3): 3.7 nM
- IC50 (NCI-N87): 0.2 nM
- IC50 (MO7e): 10.6 nM
- IC50 (MDA-MB-361): 6 nM
- IC50 (PC3): 5 nM
- IC50 (MDA-MB-453): 3.9 nM
- IC50 (HN5): 8 nM
- IC50 (NCI-H460): 14 nM
- IC50 (BT474): 2.8 nM
- IC50 (MV522): 8.1 nM
- IC50 (Colo205): 6.2 nM
